Results taken from paper PMC10774418, “A cyclin D1 intrinsically disordered domain accesses modified histone motifs to govern gene transcription” (Oncogenesis, 2024).

Tests used:
CDK4 = test: Mammalian two-hybrid, 293 T; format: cell-based, human; conditions: 293 T cells, Fig. S7
Description: Mammalian two-hybrid was conducted following the manufacturer’s instruction (Promega, Madison, WI). The human CDK4 cDNA was cloned into pBIND vector, and the human cyclin D1 cDNA (wild type or mutants) was cloned into pACT vector to generate fusion proteins with the DNA-binding domain of Gal4 (Gal4-CDK4), and the activation domain of VP16 (VP16-cyclin D1), respectively. Gal4-CDK4, VP16-cyclin D1 and pG5-Luc reporter containing five copies of Gal4 binding sites upstream of a minimal TATA box and the firefly luciferase gene (Promega) were co-transfected into MCF-7 or HEK-293T cells with Superfect reagent 48 h after transfection, the cells were lysed, and the amount of luciferase activity was quantitated. Transfection efficiency was normalized using renilla luciferase.

[1] = tested on: cyclin D1-/- 3T3 rescue cells; test: Etoposide sensitivity (cell viability); format: cell-based, mouse; conditions: 5, 10 µM, 24 h, N=6
[2] = tested on: γ-H2AX in cyclin D1^-/- rescue MEFs; test: γ-H2AX abundance / H2A Ser139 phosphorylation after doxorubicin; format: cell-based, mouse; conditions: cyclin D1^WT rescued cyclin D1^-/- MEFs, p20 and p21, Western blot
Description: Whole-cell lysates (50 μg) were separated by 10% SDS-PAGE gel, and the proteins were transferred to nitrocellulose membrane for Western blotting using the following antibodies: anti-FLAG antibody (M2 Aldrich, #F1804, St. Louis, MO), anti-GST (Cell Signaling, #2624, Danvers, MA), anti-β-tubulin (Santa Cruz Biotechnology, #sc-55529, Santa Cruz, CA), anti-Vinculin (Sigma-Aldrich, #V9131 St. Louis, MO), Topoisomerase 2 A (Santa Cruz Biotechnology, #sc-365916, Santa Cruz, CA), Histone 2B Serine 14 P (Santa Cruz Biotechnology, #sc-31671, Santa Cruz, CA), Histone 2B (Santa Cruz Biotechnology, #sc-10808, Santa Cruz, CA), γH2A.X (Cell Signaling, #9718, Danvers, MA) and H2A.X (Cell Signaling, #2595, Danvers, MA).

| CDK4 binding (CDK4) | Molecule | other results |
| --- | --- | --- |
| maintained enhanced binding | E280A: cyclin D1 point mutant within the E region |  |
| maintained enhanced binding | E278A: cyclin D1 point mutant within the E region |  |

More lines, now with the values behind:

| Molecule | CDK4 binding (CDK4) | other results |
| --- | --- | --- |
| COc1cc([C@@H]2c3cc4c(cc3[C@@H](O[C@@H]3O[C@@H]5CO[C@@H](C)O[C@H]5[C@H](O)[C@H]3O)[C@H]3COC(=O)[C@H]23)OCO4)cc(OC)c1O [etoposide] |  | sensitivity to etoposide ([1]; cyclin D1 rescued cells): more sensitive; change in sensitivity to etoposide ([1]; upon deletion of the E domain): modest but significant reduction in sensitivity |
| E278/280 A: cyclin D1 double point mutant within the E region | maintained enhanced binding |  |
| COc1cccc2c1C(=O)c1c(O)c3c(c(O)c1C2=O)C[C@@](O)(C(=O)CO)C[C@@H]3O[C@H]1C[C@H](N)[C@H](O)[C@H](C)O1 [doxorubicin] |  | γ-H2AX abundance [2]: increased |
